Laboratory results from patent US20170007553A1, “METHODS FOR THE PREVENTION AND TREATMENT OF CEREBRAL ISCHEMIA” (Edison Pharmaceuticals, Inc., priority 2009, published 2017).

Columns and labels:
neuronal cells = conditions: nM/L concentrations; by suppressing early activation of c-Src kinase and 12-lipoxygenase; cited from earlier work
[1] = fraction of the activity of natural alpha-tocopherol; cited from earlier work
[2] = system: cerebral ischemia induced in rats (MCAO); assay: Animal cerebral infarct assay, rat middle cerebral artery occlusion (MCAO) with reperfusion; assay type: in vivo; conditions: for reduction of total infarct size: gavage, 500 mg/kg
[3] = administered at the time of reperfusion, rats

alpha-tocotrienol
blocking of glutamate-induced death (neuronal cells): blocked glutamate-induced death

Cc1c(C)c2c(c(C)c1O)CC[C@@](C)(CCC[C@H](C)CCC[C@H](C)CCCC(C)C)O2 [alpha-tocopherol]
blocking of glutamate-induced death (neuronal cells): not

Cc1cc(O)cc2c1O[C@](C)(CCC[C@H](C)CCC[C@H](C)CCCC(C)C)CC2 [Delta-tocopherol]
activity relative to natural alpha-tocopherol [1]: one hundredth

CC(C)=CCC/C(C)=C/CC/C(C)=C/CC[C@@](C)(O)CCC1=C(C)C(=O)C(C)=C(C)C1=O [alpha-tocotrienol quinone]
reduction of cerebral edema relative to controls [2, 3]: 40%
reduction of total infarct volume relative to controls [2, 3]: 40%
reduction of total ischemic damage relative to controls [2, 3]: 40%
reduction of total infarct size ([2]; administered at reperfusion): 40%
reduction of total infarct size ([2]; administered at the time of MCAO): 40%
